# Values joined by “and” are separate entries in the source; they are usually repeats but may differ in a detail not shown here. Identical values can stand only once.
# Assays:
# [1] = system: VSV; format: cell-based, vesicular stomatitis virus
# [2] = system: red cells; assay: Red cell hemolysis at day 42 for DMMB+light treated samples in a flow system; conditions: for Hemolysis (%), day 42: approximately 3.5 μM DMMB, no blocker, stored at 1-6° C.
# [3] = system: red blood cells; conditions: with type 1/type 2 quenchers, optimized conditions; cited from earlier work
compound,measurement,setting,value
"Cc1cc(N(C)C)cc2[s+]c3cc(N(C)C)cc(C)c3nc12 [DMMB, 1,9-dimethylmethylene blue]",increase in VSV inactivation with greater light fluences,[1],50%
same,"Hemolysis (%), day 42",[2]; light fluence 226 mJ/cm^2,2.8% and 2.84%
same,"Hemolysis (%), day 42",[2]; light fluence 889 mJ/cm^2,14.5% and 14.53%
same,"Hemolysis (%), day 42",[2]; light fluence 1597 mJ/cm^2,12.10%
same,increase in hemolysis with greater light fluences,"[2]; samples lacking riboflavin, 2.8 to 14.5%",500%
"Cc1cc2nc3c(=O)[nH]c(=O)nc-3n(C[C@H](O)[C@H](O)[C@H](O)CO)c2cc1C [riboflavin, 7,8-dimethyl-10-ribitylisoalloxazine]",enhancement of VSV inactivation by addition of the blocker,[1],> 4.1 log10
phthalocyanine 4,cells that hemolyze after 21 days of storage,[3],about 2%

# — US20010046662A1, “Method of inactivating pathogens in a red blood cell-containing composition” (priority 2000, published 2001)
